Entries after “also recorded” stand apart in the source; their conditions may differ.
What was measured:
[1] = tested on: vascular mesenteric bed; assay: Rat arteriolar mesenteric bed: acetylcholine-evoked decrease in perfusion pressure after 4-week oral treatment; assay type: in vivo, alloxan-diabetic male Wistar rats; settings: for effect on microvascular endothelial dysfunction: chronic (4-week) oral administration, highest acetyl choline concentrations, FIG. 4
Description: Male Wistar rats, weighing between 230-250 g, fed regular chow, with free access to water were separated in four groups (n=10/each). The first two groups, termed normoglycemic, were treated with saline (0.1 mL/100 g/12 h) by the oral route (intragastric gavage) or untreated for four weeks. The second two groups, hyperglycemic, were treated with saline (0.1 mL/100 g/12 h) or treated with D-chiro-inositol (20 mg/kg/12 h) under the same protocol. […] Diabetes was induced by a single intravenous injection of 45 mg/kg alloxan as described by Sannomiya et al., 1997 ( ). Diabetes was diagnosed 96 h after injection by blood glucose assay >200 mg/dL. All protocols were approved by the local committee and follow the Guide for the Care and Use of Laboratory Animals published by the US National Institutes of Health (NIH Publication No. 85-23, revised 1996).
The mesentery was carefully removed by cutting close to the intestinal border with a small scissors. […] The vascular bed was rapidly perfused with warm KHS (37° C.; pH 7.4; gassed with 95% O2 in 5% CO2) in an open system with a constant flow of 4 ml/min maintained with a peristaltic pump. Alterations in perfusion pressure were continuously recorded in a four-channel polygraph (Narco Biosystems, Houston, Tex., USA) by means of a pressure transducer (P23 Gould Stratham, Oxnard, Calif., USA). After a 30 minute equilibration period, phenylephrine (1 to 5 μM) was infused by means of an infusion pump at a constant rate (0.1 ml/min) in order to achieve a stable perfusion pressure (100-120 mm Hg). Dose response curves were performed with vasodilators, i.e. acetylcholine (Ach; 10^-9 to 10^-3 M). Drugs were injected as 50 μL boluses, previously shown not to effect perfusion pressure in a side arm just above the cannula in the mesenteric artery. At least 6 separate experiments were performed each in duplicate.

[2] = tested on: aortic rings; assay: Rat aortic thoracic rings: acetylcholine relaxation after phenylephrine contraction, 4-week oral treatment; assay type: in vivo, alloxan-diabetic male Wistar rats; settings: for endothelial dysfunction overall: 4-week oral administration versus saline treated alloxan diabetic rats; for effect on macrovascular endothelial dysfunction at highest acetyl choline concentrations: FIG. 2, FIG. 3; for effect on macrovascular endothelial dysfunction at intermediate acetylcholine concentration: acetylcholine 10^-7 M
Description: Male Wistar rats, weighing between 230-250 g, fed regular chow, with free access to water were separated in four groups (n=10/each). The first two groups, termed normoglycemic, were treated with saline (0.1 mL/100 g/12 h) by the oral route (intragastric gavage) or untreated for four weeks. The second two groups, hyperglycemic, were treated with saline (0.1 mL/100 g/12 h) or treated with D-chiro-inositol (20 mg/kg/12 h) under the same protocol. […] Diabetes was induced by a single intravenous injection of 45 mg/kg alloxan as described by Sannomiya et al., 1997 ( ). Diabetes was diagnosed 96 h after injection by blood glucose assay >200 mg/dL. All protocols were approved by the local committee and follow the Guide for the Care and Use of Laboratory Animals published by the US National Institutes of Health (NIH Publication No. 85-23, revised 1996). After completion of blood pressure measurements and vascular mesenteric bed collection, animals were sacrificed by exsanguination while under anesthesia. The thoracic aorta was excised and rapidly cleansed of connective tissue in Petri dishes containing warmed and gassed (95% O2 in 5% CO2) Krebs-Henseleit solution (KHS). The aorta segment was cut in small rings (≈5 mm) and mounted horizontally in 5 mL chambers for isometric recording of tension. The resting tension was adjusted to 1 g and the tissue allowed to equilibrate for 1 hour with a 15 min washout period. Tissues were kept in KHS at 37° C., gassed with the O2, CO2 mixture and isometric recordings made with a force displacement transducer connected to a four-channel polygraph (Narco Biosystems, Houston, Tex., USA). After the equilibration period, tissues were contracted with a submaximal concentration of phenylephrine (≈60% maximal response) until two similar responses were obtained in order to ensure reproducibility of the contraction curves. […] The acetylcholine dose response curve was repeated after a 60 min washout interval. All experiments were performed in the presence of indomethecin (10 μM) and guanethidine (10 μM) to prevent the production of vasoactive prostanoids. At least 6 separate experiments will be performed each in duplicate.

[3] = tested on: bovine aortic endothelial cells; assay: Superoxide assay in cells: ROS in high glucose (CM-H2DCFDA); assay type: cell-based; settings: for reduction of ROS in cells: 30 mM glucose (ROS increased 2 fold vs 5 mM), 20, 50, 100 μM, FIG. 9; for maximal concentration for ROS reduction: 30 mM glucose, tested 20, 50, 100 μM
Description: Bovine aortic endothelial cells were incubated in 5 mM (control) or 30 mM (hyperglycemic) glucose for 2 hours and reactive oxygen species (ROS) determined fluorometrically using the probe CM-H2DCFDA as described by Brownlee et al. Cells were loaded with 10 μM CM-H2DCFDDA, incubated for 45 min at 37°, and then analyzed in an HTS 7000 Bio assay Fluorescent Plate Reader using HT software. ROS production is reported as nmol/mL based on a standard curve produced with H2O2.

[4] = chronic oral administration, FIG. 3

SMILES | effect on microvascular endothelial dysfunction [1] | effect on microvascular endothelial dysfunction ([1]; listed as D-chiro-inositol) | maximal decrease in perfusion pressure to acetylcholine ([1]; tissues from alloxan-diabetic rats treated with D-chiro-inositol 20 mg/kg/12 h by gavage for 4 weeks, saline-treated diabetic 23±5%, normoglycemic 61±3.7%) | endothelial dysfunction overall [2] | endothelial dysfunction overall ([2]; listed as D-chiro-inositol) | relaxant response induced by acetylcholine, reversal of the pre-contractile state ([2]; D-chiro-inositol 20 mg/kg/12 h by gavage four weeks, lower acetylcholine concentrations, saline diabetic 57.4±4.5%) | effect on macrovascular endothelial dysfunction at highest acetyl choline concentrations ([2]; chronic oral administration) | effect on macrovascular endothelial dysfunction at intermediate acetylcholine concentration [2, 4] | effect on macrovascular endothelial dysfunction at intermediate acetylcholine concentration ([2]; chronic oral administration, FIG. 3, listed as D-chiro-inositol) | reduction of ROS in cells [3] | reduction of ROS in cells ([3]; listed as D-chiro-inositol) | maximal concentration for ROS reduction [3] | effect on microvascular endothelial dysfunction ([1]; listed as dibutyryl D-chiro-inositol) | effect on macrovascular endothelial dysfunction at lowest acetyl choline concentrations [2, 4] | reduction of ROS in cells ([3]; listed as Dibutyryl-DCI)
OC1C(O)C(O)C(O)C(O)C1O [DCI, D-chiro-inositol] | approximately equally effective | effective | 52±6% | effective in improving endothelial dysfunction | prevented the endothelial dysfunction | 100% | partially restored to normal; also recorded: the most effective | followed by DCI, pinitol and myoinositol in descending order of effect | active at intermediate acetyl choline concentrations | reduced back to basal concentrations in a dose dependant manner | reduced to basal concentrations in a dose dependent manner | 50 µM |  |  | 
CCCC(=O)O[C@@H]1[C@@H](O)[C@@H](O)[C@H](O)[C@H](O)[C@H]1OC(=O)CCC [dbDCI, 3,4-dibutyryl-D-chiroinositol] | perhaps slightly better than pinitol and DCI |  |  |  |  |  | the most effective | greatest effect |  | reduced back to basal concentrations in a dose dependant manner |  | 20 µM | perhaps slightly better than pinitol and D-chiro-inositol | most effective at the lowest acetyl choline concentrations | greater effect of reducing ROS than DCI at lower concentrations
